Measured values reported in ChEMBL document CHEMBL6092221, “Discovery of a Novel Macrocyclic Noncovalent CDK7 Inhibitor for Cancer Therapy” (J Med Chem, 2024).
Values after ≈ are worked out from the molar mass of the structure shown.

Columns and labels:
[1] = AUC(0 to infinity) in female Balb/c nude mouse at 1 mg/kg, iv; assay type: ADME, organism-based; conditions: in vivo
[2] = biological target: Cyclin-dependent kinase 7/ cyclin H (Homo sapiens, UniProt P50613); experiment: Binding affinity to CDK7/CyclinH (unknown origin) assessed as dissociation constant by SPR assay; assay type: protein-complex assay
Sequence of Cyclin-dependent kinase 7/ cyclin H (P51946 whole entry): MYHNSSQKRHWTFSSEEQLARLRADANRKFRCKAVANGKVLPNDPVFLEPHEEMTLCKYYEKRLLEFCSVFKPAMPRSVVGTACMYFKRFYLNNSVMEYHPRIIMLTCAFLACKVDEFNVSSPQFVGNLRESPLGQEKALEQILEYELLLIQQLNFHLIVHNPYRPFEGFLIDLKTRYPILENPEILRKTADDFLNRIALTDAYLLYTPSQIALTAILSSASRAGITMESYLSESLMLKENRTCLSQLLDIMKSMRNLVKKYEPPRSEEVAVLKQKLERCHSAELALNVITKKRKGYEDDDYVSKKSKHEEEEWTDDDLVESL
Sequence of Cyclin-dependent kinase 7/ cyclin H (P50613 whole entry): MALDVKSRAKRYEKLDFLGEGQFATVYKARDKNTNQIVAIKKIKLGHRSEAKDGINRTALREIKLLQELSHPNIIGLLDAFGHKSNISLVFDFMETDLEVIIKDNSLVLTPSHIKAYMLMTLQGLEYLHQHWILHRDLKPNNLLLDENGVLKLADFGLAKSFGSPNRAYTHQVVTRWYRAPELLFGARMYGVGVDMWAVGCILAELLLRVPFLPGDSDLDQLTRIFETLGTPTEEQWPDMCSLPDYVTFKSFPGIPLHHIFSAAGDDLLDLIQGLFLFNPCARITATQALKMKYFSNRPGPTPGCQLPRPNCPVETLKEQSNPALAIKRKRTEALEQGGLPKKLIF

[3] = Efflux ratio of permeability in human Caco-2 cells; assay type: ADME, cell-based
[4] = Oral bioavailability in female Balb/c nude mouse at 10 mg/kg; assay type: ADME, organism-based; conditions: in vivo
HCC70 [5] = experiment: cells; conditions: Homo sapiens, HCC70, 72 h
Description: Antiproliferative activity against human HCC70 cells assessed as inhibition of cell proliferation incubated for 72 hrs by celltiter-glo assay

[6] = Cmax in female Balb/c nude mouse at 10 mg/kg, po; assay type: ADME, organism-based; conditions: in vivo
[7] = Clearance in female Balb/c nude mouse at 1 mg/kg, iv; assay type: ADME, organism-based; conditions: in vivo
[8] = Volume of distribution at steady state in female Balb/c nude mouse at 1 mg/kg, iv; assay type: ADME, organism-based; conditions: in vivo, read-out: Vdss
[9] = AUC(0 to infinity) in female Balb/c nude mouse at 10 mg/kg, po; assay type: ADME, organism-based; conditions: in vivo
[10] = Permeability in human Caco-2 cells; assay type: ADME, cell-based; conditions: read-out: permeability
[11] = Half life in female Balb/c nude mouse at 10 mg/kg, po; assay type: ADME, organism-based; conditions: in vivo
[12] = Metabolic stability in mouse liver microsomes assessed as intrinsic clearance; assay type: ADME, Microsome; conditions: read-out: CLH
[13] = Half life in female Balb/c nude mouse at 5 mg/kg, po; assay type: ADME, organism-based; conditions: in vivo
OVCAR-3 [14] = experiment: cells; conditions: Homo sapiens, OVCAR-3, 72 h
Description: Antiproliferative activity against human OVCAR-3 cells assessed as inhibition of cell proliferation incubated for 72 hrs by celltiter-glo assay

[15] = Oral bioavailability in female Balb/c nude mouse at 5 mg/kg; assay type: ADME, organism-based; conditions: in vivo
[16] = Cmax in female Balb/c nude mouse at 5 mg/kg, po; assay type: ADME, organism-based; conditions: in vivo
[17] = AUC(0 to t) in female Balb/c nude mouse at 5 mg/kg, po; assay type: ADME, organism-based; conditions: in vivo
[18] = Oral bioavailability in rat at 5 mg/kg; assay type: ADME, organism-based; conditions: in vivo
[19] = AUC(0 to t) in dog at 2 mg/kg, po; assay type: ADME, organism-based, Canis lupus familiaris; conditions: in vivo
[20] = Oral bioavailability in mouse at 5 mg/kg; assay type: ADME, organism-based; conditions: in vivo
[21] = Drug concentration in rat small intestine at 5 mg/kg, po measured after 2 hrs; assay type: ADME, organism-based; conditions: read-out: Ct
[22] = Cmax in rat at 5 mg/kg, po; assay type: ADME, organism-based; conditions: in vivo
[23] = Metabolic stability in human liver microsomes assessed as intrinsic clearance; assay type: ADME, Microsome; conditions: read-out: CLH
[24] = Plasma protein binding in human assessed as unbound fraction; assay type: ADME, cell-free
[25] = Drug concentration in rat plasma at 5 mg/kg, po measured after 8 hrs; assay type: ADME, organism-based
[26] = Half life in rat at 1 mg/kg, iv; assay type: ADME, organism-based; conditions: in vivo
[27] = Clearance in dog at 1 mg/kg, iv; assay type: ADME, organism-based, Canis lupus familiaris; conditions: in vivo
[28] = Half life in dog at 2 mg/kg, po; assay type: ADME, organism-based, Canis lupus familiaris; conditions: in vivo
[29] = AUC(0 to t) in human HCC70 cells xenografted in female nu/nu mouse plasma at 1 mg/kg, po administered once daily; assay type: ADME, organism-based
[30] = Volume of distribution at steady state in mouse at 1 mg/kg, iv; assay type: ADME, organism-based; conditions: in vivo, iv, 1 mg/kg
[31] = Clearance in rat at 1 mg/kg, iv; assay type: ADME, organism-based; conditions: in vivo
[32] = Cmax in human OVCAR-3 cells xenografted in female Balb/c nude mouse plasma at 5 mg/kg, po administered once daily; assay type: ADME, organism-based
[33] = Oral bioavailability in dog at 2 mg/kg; assay type: ADME, organism-based, Canis lupus familiaris; conditions: in vivo
[34] = Cmax in mouse at 5 mg/kg, po; assay type: ADME, organism-based; conditions: in vivo
[35] = Drug concentration in rat plasma at 5 mg/kg, po measured after 0.5 hrs; assay type: ADME, organism-based
[36] = Volume of distribution at steady state in dog at 1 mg/kg, iv; assay type: ADME, organism-based, Canis lupus familiaris; conditions: in vivo, read-out: Vdss
[37] = AUC(0 to t) in mouse at 1 mg/kg, iv; assay type: ADME, organism-based; conditions: in vivo
[38] = Metabolic stability in rat liver microsomes assessed as intrinsic clearance; assay type: ADME, Microsome; conditions: read-out: CLH
[39] = Toxicity in female nu/nu mouse xenografted with human HCC70 cells assessed as body weight loss at 1 to 10 mg/kg, po administered once daily and measured for 4 weeks; assay type: organism-based; conditions: in vivo, 672 h, dose 1-10 mg/kg
[40] = Volume of distribution at steady state in rat at 1 mg/kg, iv; assay type: ADME, organism-based; conditions: in vivo, read-out: Vdss
[41] = AUC(0 to t) in mouse at 5 mg/kg, po; assay type: ADME, organism-based; conditions: in vivo
hERG = hERG (Homo sapiens, UniProt Q12809); experiment: Inhibition of hERG at 10 uM relative to control; assay type: toxicity
Sequence of hERG (Q12809 whole entry): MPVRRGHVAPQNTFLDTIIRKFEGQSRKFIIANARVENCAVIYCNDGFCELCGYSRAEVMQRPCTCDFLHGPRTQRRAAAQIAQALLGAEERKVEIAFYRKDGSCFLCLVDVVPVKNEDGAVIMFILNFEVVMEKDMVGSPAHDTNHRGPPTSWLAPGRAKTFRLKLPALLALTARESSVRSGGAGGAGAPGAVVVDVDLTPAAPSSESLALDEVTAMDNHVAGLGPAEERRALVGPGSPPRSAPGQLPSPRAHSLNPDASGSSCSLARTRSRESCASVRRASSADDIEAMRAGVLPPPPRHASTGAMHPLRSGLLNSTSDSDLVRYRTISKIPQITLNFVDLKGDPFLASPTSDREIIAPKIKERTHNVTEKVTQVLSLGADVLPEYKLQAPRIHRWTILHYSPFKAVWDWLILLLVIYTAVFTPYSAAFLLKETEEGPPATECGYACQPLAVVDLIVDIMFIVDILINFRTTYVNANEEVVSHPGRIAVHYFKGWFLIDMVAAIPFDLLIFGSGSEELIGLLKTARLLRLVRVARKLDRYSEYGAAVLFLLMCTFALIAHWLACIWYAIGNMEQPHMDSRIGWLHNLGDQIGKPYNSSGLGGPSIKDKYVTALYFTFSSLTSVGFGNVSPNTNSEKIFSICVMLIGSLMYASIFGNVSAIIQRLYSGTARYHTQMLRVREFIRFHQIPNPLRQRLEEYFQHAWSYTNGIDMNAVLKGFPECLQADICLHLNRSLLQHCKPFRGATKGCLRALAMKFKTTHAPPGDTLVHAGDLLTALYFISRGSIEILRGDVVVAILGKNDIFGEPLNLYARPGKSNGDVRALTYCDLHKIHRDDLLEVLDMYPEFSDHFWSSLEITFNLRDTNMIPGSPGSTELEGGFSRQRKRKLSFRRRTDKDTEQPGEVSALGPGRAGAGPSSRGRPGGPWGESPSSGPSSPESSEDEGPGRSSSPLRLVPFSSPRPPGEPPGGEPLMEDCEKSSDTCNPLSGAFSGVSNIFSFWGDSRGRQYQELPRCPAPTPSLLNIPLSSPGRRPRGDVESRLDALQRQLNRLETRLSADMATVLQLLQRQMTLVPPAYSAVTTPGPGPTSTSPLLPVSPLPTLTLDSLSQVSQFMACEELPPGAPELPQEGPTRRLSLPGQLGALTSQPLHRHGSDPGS

[42] = Half life in dog at 1 mg/kg, iv; assay type: ADME, organism-based, Canis lupus familiaris; conditions: in vivo
[43] = Drug concentration in rat plasma at 5 mg/kg, po measured after 2 hrs; assay type: ADME, organism-based
[44] = Solubility of compound at pH 7.4; assay type: physicochemical; conditions: buffer
[45] = AUC(0 to t) in rat at 5 mg/kg, po; assay type: ADME, organism-based; conditions: in vivo
[46] = AUC (0 to t) in human OVCAR-3 cells xenografted in female Balb/c nude mouse plasma at 5 mg/kg, po administered once daily; assay type: ADME, organism-based
[47] = Half life in mouse at 1 mg/kg, iv; assay type: ADME, organism-based; conditions: in vivo, iv, 1 mg/kg
[48] = AUC(0 to t) in rat at 1 mg/kg, iv; assay type: ADME, organism-based; conditions: in vivo
[49] = Drug concentration in rat small intestine at 5 mg/kg, po measured after 0.5 hrs; assay type: ADME, organism-based; conditions: read-out: Ct
[50] = AUC (0 to t) in dog at 1 mg/kg, iv; assay type: ADME, organism-based, Canis lupus familiaris; conditions: in vivo
[51] = Cmax in human HCC70 cells xenografted in female nu/nu mouse plasma at 1 mg/kg, po administered once daily; assay type: ADME, organism-based
OVCAR-3 [52] = experiment: Antitumor activity against human OVCAR-3 cells xenografted in female Balb/c nude mouse assessed as tumor growth inhibition at 2 mg/kg, po administered once daily and measured on day 22; assay type: functional; conditions: OVCAR-3, 528 h, time 22 day, read-out: TGI
[53] = Drug concentration in rat small intestine at 5 mg/kg, po measured after 8 hrs; assay type: ADME, organism-based; conditions: read-out: Ct
[54] = Half life in mouse at 5 mg/kg, po; assay type: ADME, organism-based; conditions: in vivo
HCC70 [55] = experiment: Antitumor activity against human HCC70 cells xenografted in female nu/nu mouse assessed as tumor growth inhibition at 1 mg/kg, po administered once daily and measured for 4 weeks; assay type: functional; conditions: HCC70, 672 h, read-out: TGI
[56] = Cmax in dog at 2 mg/kg, po; assay type: ADME, organism-based, Canis lupus familiaris; conditions: in vivo
[57] = Plasma protein binding in mouse assessed as unbound fraction; assay type: ADME, cell-free
[58] = Plasma protein binding in rat assessed as unbound fraction; assay type: ADME, cell-free

## CP(C)(=O)c1c2ccc3c(c[nH]c13)-c1nc(ncc1C(F)(F)F)N[C@H]1CC[C@@H](C1)NCCOCCNC2=O
[1]
  AUC(0-inf): 163 ng·h/mL
[2]
  Kd: 0.06 nM
[3]
  efflux ratio: > 35.8
[4]
  bioavailability: 22.8%
HCC70 [5]
  IC50: 29 nM
[6]
  Cmax: 89.4 ng/mL
[7]
  clearance: 95.9 mL/min/kg
[8]
  Vd: 12 L/kg
[9]
  AUC(0-inf): 412 ng·h/mL
[10]
  Papp: < 0.48 ×10⁻⁶ cm/s
[11]
  half-life: 2 h
[12]
  CLint scaled: < 13.4 mL/min/kg

## CN1CCOCCN(C)[C@H]2CC[C@@H](C2)Nc2ncc(C(F)(F)F)c(n2)-c2c[nH]c3c(P(C)(C)=O)c(ccc23)C1=O
[13]
  half-life: 1.5 h
OVCAR-3 [14]
  IC50: 241 nM
[15]
  bioavailability: 28.4%
[3]
  efflux ratio: 32.5
HCC70 [5]
  IC50: 56.1 nM
[16]
  Cmax: 268 ng/mL
[17]
  AUC(0-t): 572 ng·h/mL
[7]
  clearance: 41.3 mL/min/kg
[8]
  Vd: 1.5 L/kg
[10]
  Papp: 0.39 ×10⁻⁶ cm/s

## CP(C)(=O)c1c2ccc3c(c[nH]c13)-c1nc(ncc1C(F)(F)F)N[C@H]1CC[C@@H](C1)NCCCCNC2=O
[1]
  AUC(0-inf): 333 ng·h/mL
[2]
  Kd: 0.16 nM
[3]
  efflux ratio: > 15.1
[4]
  bioavailability: 0.7%
HCC70 [5]
  IC50: 33 nM
[6]
  Cmax: 16.8 ng/mL
[7]
  clearance: 49.3 mL/min/kg
[8]
  Vd: 3.6 L/kg
[9]
  AUC(0-inf): 26 ng·h/mL
[10]
  Papp: < 0.48 ×10⁻⁶ cm/s
[11]
  half-life: 1.4 h
[12]
  CLint scaled: < 13.4 mL/min/kg

## CN1CCCCO[C@H]2CC[C@@H](C2)Nc2ncc(C(F)(F)F)c(n2)-c2c[nH]c3c(P(C)(C)=O)c(ccc23)C1=O
[13]
  half-life: 1 h
OVCAR-3 [14]
  IC50: 180 nM
[15]
  bioavailability: 30.9%
[2]
  Kd: 3.5 nM
[3]
  efflux ratio: 1.1
HCC70 [5]
  IC50: 243 nM
[16]
  Cmax: 343 ng/mL
[17]
  AUC(0-t): 563 ng·h/mL
[7]
  clearance: 45.8 mL/min/kg
[8]
  Vd: 1 L/kg
[10]
  Papp: 26 ×10⁻⁶ cm/s

## CN1CCCCN(C)[C@H]2CC[C@@H](C2)Nc2ncc(C(F)(F)F)c(n2)-c2c[nH]c3c(P(C)(C)=O)c(ccc23)C1=O
[13]
  half-life: 2.1 h
OVCAR-3 [14]
  IC50: 105 nM
[15]
  bioavailability: 22.7%
[3]
  efflux ratio: 19.2
HCC70 [5]
  IC50: 22 nM
[16]
  Cmax: 105 ng/mL
[17]
  AUC(0-t): 302 ng·h/mL
[7]
  clearance: 62.5 mL/min/kg
[8]
  Vd: 5.6 L/kg
[10]
  Papp: 0.72 ×10⁻⁶ cm/s

## CC1(C)CC[C@H](Nc2ncc(C(F)(F)F)c(-c3c[nH]c4c(P(C)(C)=O)c(C#N)ccc34)n2)CN1 [SY-5609]
[18]
  bioavailability: 89.7%
[19]
  AUC(0-t): 1460 ng·h/mL
[20]
  bioavailability: 94.3%
[21]
  concentration at 2 h: 5030 ng/g
[22]
  Cmax: 76 ng/mL
[23]
  CLint scaled: 7.2 mL/min/kg
[24]
  fraction unbound: 0.142
[25]
  concentration at 8 h: 43.1 ng/mL
[26]
  half-life: 3.2 h
[27]
  clearance: 14.5 mL/min/kg
[28]
  half-life: 6.6 h
[29]
  AUC(0-t): 138 ng·h/mL
[30]
  Vdss: 5.9 L/kg
[31]
  clearance: 67.5 mL/min/kg
[32]
  Cmax: 80 ng/mL
[33]
  bioavailability: 65.8%
[34]
  Cmax: 339 ng/mL
HCC70 [5]
  IC50: 72 nM
[35]
  concentration at 0.5 h: 13.4 ng/mL
[36]
  Vd: 7.6 L/kg
[37]
  AUC(0-t): 406 ng·h/mL
[38]
  CLint scaled: 4.3 mL/min/kg
[39]
  Activity: Non-toxic
[40]
  Vd: 16.9 L/kg
[41]
  AUC(0-t): 1920 ng·h/mL
hERG
  inhibition at 10 µM: 37.1%
[42]
  half-life: 6.9 h
[43]
  concentration at 2 h: 69.3 ng/mL
[44]
  solubility: 172 µg/mL (≈ 351 µM)
[45]
  AUC(0-t): 920 ng·h/mL
[46]
  AUC(0-t): 387 ng·h/mL
[47]
  t1/2: 0.6 h
[48]
  AUC(0-t): 247 ng·h/mL
[49]
  concentration at 0.5 h: 2500 ng/g
[10]
  Papp: 2.54 ×10⁻⁶ cm/s
[50]
  AUC(0-t): 1110 ng·h/mL
[51]
  Cmax: 33.5 ng/mL
OVCAR-3 [52]
  inhibition in vivo at 2 mg/kg: 110%
[53]
  concentration at 8 h: 842 ng/g
[54]
  half-life: 2.7 h
[12]
  CLint scaled: < 26.7 mL/min/kg
HCC70 [55]
  inhibition in vivo at 1 mg/kg: 48.8%
[56]
  Cmax: 123 ng/mL
[57]
  fraction unbound: 0.065
[58]
  fraction unbound: 0.163
